Data reported in EP0041644B1 (priority 1980, dated 1981).

Assays:
Lewis Lung Carcinoma = Lewis Lung Carcinoma - Test 1 (ip, delayed therapy); type: in vivo, mice
L1210 Leukemia = L1210 Leukemia - Test 2; type: in vivo, mice

N.N.[Cl][Pt][Cl] [Cis-DDP, cis-diammine dichloroplatinum (II)]
Effect MST %TC (Lewis Lung Carcinoma; 8 mg/kg/inj ip, d. 5, 9&13): 128 %TC | MST Days (Lewis Lung Carcinoma; 8 mg/kg/inj ip, d. 5, 9&13): 16.0 days | Av. Wt. Change,g Day 9 (Lewis Lung Carcinoma; 8 mg/kg/inj iv, d. 5,9&13): -0.7 g | Effect MST %TC (Lewis Lung Carcinoma; 8 mg/kg/inj iv, d. 5,9&13): 112 %TC | MST Days (Lewis Lung Carcinoma; 8 mg/kg/inj iv, d. 5,9&13): 14.0 days | Survivors Day 9(48) (Lewis Lung Carcinoma; 0.4 mg/kg/inj ip, qd 5→13): 6/6 | Survivors Day 9(48) (Lewis Lung Carcinoma; 0.8 mg/kg/inj ip, qd 5→13): 5/6 | Survivors Day 9(48) (Lewis Lung Carcinoma; 1.6 mg/kg/inj ip, qd 5→13): 6/6 | Survivors Day 9(48) (Lewis Lung Carcinoma; 2 mg/kg/inj ip, d. 5, 9&13): 6/6 | Survivors Day 9(48) (Lewis Lung Carcinoma; 2 mg/kg/inj iv, d. 5,9&13): 6/6 | Survivors Day 9(48) (Lewis Lung Carcinoma; 2.4 mg/kg/inj ip, qd 5→13): 6/6 | Survivors Day 9(48) (Lewis Lung Carcinoma; 4 mg/kg/inj ip, d. 5, 9&13): 6/6 | Survivors Day 9(48) (Lewis Lung Carcinoma; 4 mg/kg/inj iv, d. 5,9&13): 6/6 | Survivors Day 9(48) (Lewis Lung Carcinoma; 6 mg/kg/inj ip, d. 5, 9&13): 6/6 | Survivors Day 9(48) (Lewis Lung Carcinoma; 6 mg/kg/inj iv, d. 5,9&13): 6/6 | Survivors Day 9(48) (Lewis Lung Carcinoma; 8 mg/kg/inj ip, d. 5, 9&13): 6/6 | Survivors Day 9(48) (Lewis Lung Carcinoma; 8 mg/kg/inj iv, d. 5,9&13): 6/6 | maximum T/C (Lewis Lung Carcinoma; given ip, therapy from day 5): 212-220% | T/C (Lewis Lung Carcinoma; given iv, therapy from day 5): inactive | Average Weight Change,g (L1210 Leukemia; 0.4 mg/kg/inj ip, qd 1→9): +1.6 g | Effect MST % T/C (L1210 Leukemia; 0.4 mg/kg/inj ip, qd 1→9): 100 % T/C | MST Days (L1210 Leukemia; 0.4 mg/kg/inj ip, qd 1→9): 7.0 days | Survivors Day 5(30) (L1210 Leukemia; 0.4 mg/kg/inj ip, qd 1→9): 6/6 | Average Weight Change (L1210 Leukemia; 0.8 mg/kg/inj ip, qd 1→9): -0.7 g | Effect MST % T/C (L1210 Leukemia; 0.8 mg/kg/inj ip, qd 1→9): 107 % T/C | MST Days (L1210 Leukemia; 0.8 mg/kg/inj ip, qd 1→9): 7.5 days | Survivors Day 5(30) (L1210 Leukemia; 0.8 mg/kg/inj ip, qd 1→9): 6/6 | Average Weight Change (L1210 Leukemia; 1.6 mg/kg/inj ip, qd 1→9): -2.2 g | Effect MST % T/C (L1210 Leukemia; 1.6 mg/kg/inj ip, qd 1→9): 157 % T/C | MST Days (L1210 Leukemia; 1.6 mg/kg/inj ip, qd 1→9): 11.0 days | Survivors Day 5(30) (L1210 Leukemia; 1.6 mg/kg/inj ip, qd 1→9): 6/6 | Average Weight Change,g (L1210 Leukemia; 2 mg/kg/inj iv, d.1, 5 & 9): +1.7 g | Effect MST % T/C (L1210 Leukemia; 2 mg/kg/inj iv, d.1, 5 & 9): 100 % T/C | MST Days (L1210 Leukemia; 2 mg/kg/inj iv, d.1, 5 & 9): 7.0 days | Survivors Day 5(30) (L1210 Leukemia; 2 mg/kg/inj iv, d.1, 5 & 9): 6/6 | Average Weight Change (L1210 Leukemia; 2.4 mg/kg/inj ip, qd 1→9): -3.3 g | Effect MST % T/C (L1210 Leukemia; 2.4 mg/kg/inj ip, qd 1→9): 214 % T/C | MST Days (L1210 Leukemia; 2.4 mg/kg/inj ip, qd 1→9): 15.0 days | Survivors Day 5(30) (L1210 Leukemia; 2.4 mg/kg/inj ip, qd 1→9): 6/6 | Average Weight Change (L1210 Leukemia; 4 mg/kg/inj ip, d.1): -0.7 g | Effect MST % T/C (L1210 Leukemia; 4 mg/kg/inj ip, d.1): 136 % T/C | MST Days (L1210 Leukemia; 4 mg/kg/inj ip, d.1): 9.5 days | Survivors Day 5(30) (L1210 Leukemia; 4 mg/kg/inj ip, d.1): 6/6 | Average Weight Change,g (L1210 Leukemia; 4 mg/kg/inj iv, d.1): +1.8 g | Effect MST % T/C (L1210 Leukemia; 4 mg/kg/inj iv, d.1): 100 % T/C | MST Days (L1210 Leukemia; 4 mg/kg/inj iv, d.1): 7.0 days | Survivors Day 5(30) (L1210 Leukemia; 4 mg/kg/inj iv, d.1): 6/6 | Average Weight Change,g (L1210 Leukemia; 4 mg/kg/inj iv, d.1, 5 & 9): +0.8 g | Effect MST % T/C (L1210 Leukemia; 4 mg/kg/inj iv, d.1, 5 & 9): 100 % T/C | MST Days (L1210 Leukemia; 4 mg/kg/inj iv, d.1, 5 & 9): 7.0 days | Survivors Day 5(30) (L1210 Leukemia; 4 mg/kg/inj iv, d.1, 5 & 9): 6/6 | Average Weight Change (L1210 Leukemia; 6 mg/kg/inj ip, d.1): -1.8 g | Effect MST % T/C (L1210 Leukemia; 6 mg/kg/inj ip, d.1): 171 % T/C | MST Days (L1210 Leukemia; 6 mg/kg/inj ip, d.1): 12.0 days | Survivors Day 5(30) (L1210 Leukemia; 6 mg/kg/inj ip, d.1): 6/6 | Average Weight Change (L1210 Leukemia; 6 mg/kg/inj iv, d.1): -0.2 g | Effect MST % T/C (L1210 Leukemia; 6 mg/kg/inj iv, d.1): 114 % T/C | MST Days (L1210 Leukemia; 6 mg/kg/inj iv, d.1): 8.0 days | Survivors Day 5(30) (L1210 Leukemia; 6 mg/kg/inj iv, d.1): 6/6 | Average Weight Change (L1210 Leukemia; 6 mg/kg/inj iv, d.1, 5 & 9): -1.1 g | Effect MST % T/C (L1210 Leukemia; 6 mg/kg/inj iv, d.1, 5 & 9): 164 % T/C | MST Days (L1210 Leukemia; 6 mg/kg/inj iv, d.1, 5 & 9): 11.5 days | Survivors Day 5(30) (L1210 Leukemia; 6 mg/kg/inj iv, d.1, 5 & 9): 6/6 | Average Weight Change (L1210 Leukemia; 8 mg/kg/inj ip, d.1): -2.8 g | Effect MST % T/C (L1210 Leukemia; 8 mg/kg/inj ip, d.1): 186 % T/C | MST Days (L1210 Leukemia; 8 mg/kg/inj ip, d.1): 13.0 days | Survivors Day 5(30) (L1210 Leukemia; 8 mg/kg/inj ip, d.1): 6/6 | Average Weight Change (L1210 Leukemia; 8 mg/kg/inj iv, d.1): -3.7 g | Effect MST % T/C (L1210 Leukemia; 8 mg/kg/inj iv, d.1): 129 % T/C | MST Days (L1210 Leukemia; 8 mg/kg/inj iv, d.1): 9.0 days | Survivors Day 5(30) (L1210 Leukemia; 8 mg/kg/inj iv, d.1): 6/6 | Average Weight Change (L1210 Leukemia; 8 mg/kg/inj iv, d.1, 5 & 9): -2.1 g | Effect MST % T/C (L1210 Leukemia; 8 mg/kg/inj iv, d.1, 5 & 9): 179 % T/C | MST Days (L1210 Leukemia; 8 mg/kg/inj iv, d.1, 5 & 9): 12.5 days | Survivors Day 5(30) (L1210 Leukemia; 8 mg/kg/inj iv, d.1, 5 & 9): 6/6 | Average Weight Change (L1210 Leukemia; 10 mg/kg/inj ip, d.1): -4.4 g | Effect MST % T/C (L1210 Leukemia; 10 mg/kg/inj ip, d.1): 214 % T/C | MST Days (L1210 Leukemia; 10 mg/kg/inj ip, d.1): 15.0 days | Survivors Day 5(30) (L1210 Leukemia; 10 mg/kg/inj ip, d.1): 6/6 | Average Weight Change (L1210 Leukemia; 10 mg/kg/inj iv, d.1): -3.9 g | Effect MST % T/C (L1210 Leukemia; 10 mg/kg/inj iv, d.1): 143 % T/C | MST Days (L1210 Leukemia; 10 mg/kg/inj iv, d.1): 10.0 days | Survivors Day 5(30) (L1210 Leukemia; 10 mg/kg/inj iv, d.1): 6/6 | maximum T/C (L1210 Leukemia; iv, multi-dose regimen): 179% | maximum T/C (L1210 Leukemia; multi-dose therapy ip (qd 1→9)): 207-214% | maximum T/C (L1210 Leukemia; single ip doses, ip L1210): 214%
